Laboratory results from PubChem BioAssay (NCI).
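Compound exposure: 48 hours, 5 concentrations, 96-well plates. Abbreviation: GI50, concentration required for 50% inhibition of growth. Definition used: TGI = concentration required for complete inhibition of growth.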

How the values were obtained:
Experiment in all cases: NCI-60 cell line screen, 48 h
MOLT-4 leukemia = tested on: MOLT-4 leukemia
SW-620 colon = tested on: SW-620 colon
SK-OV-3 ovarian = tested on: SK-OV-3 ovarian
CAKI-1 renal = tested on: CAKI-1 renal
T-47D breast = tested on: T-47D breast
A549 NSCLC = tested on: A549 NSCLC
SNB-19 CNS = tested on: SNB-19 CNS
TK-10 renal = tested on: TK-10 renal
SK-MEL-2 melanoma = tested on: SK-MEL-2 melanoma
NCI-H23 lung = tested on: NCI-H23 lung
ACHN renal = tested on: ACHN renal
SF-268 CNS = tested on: SF-268 CNS
MCF7 breast = tested on: MCF7 breast
OVCAR-8 ovarian = tested on: OVCAR-8 ovarian
NCI-H226 lung = tested on: NCI-H226 lung
NCI/ADR-RES ovarian = tested on: NCI/ADR-RES ovarian
MDA-MB-231 breast = tested on: MDA-MB-231 breast
SNB-75 CNS = tested on: SNB-75 CNS
MALME-3M melanoma = tested on: MALME-3M melanoma
UACC-62 melanoma = tested on: UACC-62 melanoma
HCT-116 colon = tested on: HCT-116 colon
RXF 393 renal = tested on: RXF 393 renal
786-0 renal = tested on: 786-0 renal
SF-295 CNS = tested on: SF-295 CNS
OVCAR-5 ovarian = tested on: OVCAR-5 ovarian
CCRF-CEM leukemia = tested on: CCRF-CEM leukemia
HOP-62 NSCLC = tested on: HOP-62 NSCLC
HCT-15 colon = tested on: HCT-15 colon
SF-539 CNS = tested on: SF-539 CNS
OVCAR-4 ovarian = tested on: OVCAR-4 ovarian
LOX IMVI melanoma = tested on: LOX IMVI melanoma
COLO 205 colon = tested on: COLO 205 colon
DU-145 prostate = tested on: DU-145 prostate
UACC-257 melanoma = tested on: UACC-257 melanoma
NCI-H522 lung = tested on: NCI-H522 lung
HT29 colon = tested on: HT29 colon
PC-3 prostate = tested on: PC-3 prostate
U251 CNS = tested on: U251 CNS
SN12C renal = tested on: SN12C renal
SK-MEL-5 melanoma = tested on: SK-MEL-5 melanoma
HS 578T breast = tested on: HS 578T breast
NCI-H460 lung = tested on: NCI-H460 lung
M14 melanoma = tested on: M14 melanoma
IGROV1 ovarian = tested on: IGROV1 ovarian
K-562 leukemia = tested on: K-562 leukemia
HOP-92 NSCLC = tested on: HOP-92 NSCLC
SK-MEL-28 melanoma = tested on: SK-MEL-28 melanoma
KM12 colon = tested on: KM12 colon
UO-31 renal = tested on: UO-31 renal
OVCAR-3 ovarian = tested on: OVCAR-3 ovarian
BT-549 breast = tested on: BT-549 breast
A498 renal = tested on: A498 renal
SR leukemia = tested on: SR leukemia
RPMI-8226 leukemia = tested on: RPMI-8226 leukemia

**Q.** With `COc1ccc(-c2[nH]c3ccc(OC)cc3c2C=C(C#N)C#N)cc1` as the molecule, how does the TGI (MOLT-4 leukemia) read?
**A.** > 100 µM

**Q.** What about the GI50 (SW-620 colon) of the same molecule?
**A.** 0.568 µM

**Q.** What about the TGI (SW-620 colon) of the same molecule?
**A.** > 100 µM

**Q.** What about the GI50 (SK-OV-3 ovarian) of the same molecule?
**A.** 0.731 µM

**Q.** What about the TGI (SK-OV-3 ovarian) of the same molecule?
**A.** > 100 µM

**Q.** What about the TGI (CAKI-1 renal) of the same molecule?
**A.** > 100 µM

**Q.** And the GI50 (T-47D breast)?
**A.** 2.57 µM

**Q.** What about the TGI (T-47D breast) of the same molecule?
**A.** > 100 µM

**Q.** What about the GI50 (A549 NSCLC) of the same molecule?
**A.** 3.78 µM

**Q.** What about the TGI (A549 NSCLC) of the same molecule?
**A.** > 100 µM

**Q.** What about the GI50 (SNB-19 CNS) of the same molecule?
**A.** > 37 µM

**Q.** And the TGI (SNB-19 CNS)?
**A.** > 100 µM

**Q.** And the GI50 (TK-10 renal)?
**A.** > 100 µM

**Q.** What about the TGI (TK-10 renal) of the same molecule?
**A.** > 100 µM

**Q.** What about the GI50 (SK-MEL-2 melanoma) of the same molecule?
**A.** 5.85 µM

**Q.** What about the TGI (SK-MEL-2 melanoma) of the same molecule?
**A.** > 100 µM

**Q.** What about the GI50 (NCI-H23 lung) of the same molecule?
**A.** 1.25 µM

**Q.** And the TGI (NCI-H23 lung)?
**A.** > 100 µM

**Q.** And the GI50 (ACHN renal)?
**A.** > 100 µM

**Q.** And the TGI (ACHN renal)?
**A.** > 100 µM

**Q.** What about the GI50 (SF-268 CNS) of the same molecule?
**A.** 1.67 µM

**Q.** What about the TGI (SF-268 CNS) of the same molecule?
**A.** > 100 µM

**Q.** What about the GI50 (MCF7 breast) of the same molecule?
**A.** 0.382 µM

**Q.** And the TGI (MCF7 breast)?
**A.** > 100 µM

**Q.** What about the GI50 (OVCAR-8 ovarian) of the same molecule?
**A.** > 100 µM

**Q.** What about the TGI (OVCAR-8 ovarian) of the same molecule?
**A.** > 100 µM

**Q.** And the GI50 (NCI-H226 lung)?
**A.** 1.45 µM

**Q.** What about the TGI (NCI-H226 lung) of the same molecule?
**A.** > 100 µM

**Q.** What about the GI50 (NCI/ADR-RES ovarian) of the same molecule?
**A.** 0.389 µM

**Q.** What about the TGI (NCI/ADR-RES ovarian) of the same molecule?
**A.** > 100 µM

**Q.** What about the GI50 (MDA-MB-231 breast) of the same molecule?
**A.** 1.18 µM

**Q.** What about the TGI (MDA-MB-231 breast) of the same molecule?
**A.** > 100 µM

**Q.** What about the GI50 (SNB-75 CNS) of the same molecule?
**A.** 0.551 µM

**Q.** And the TGI (SNB-75 CNS)?
**A.** 97.7 µM

**Q.** And the GI50 (MALME-3M melanoma)?
**A.** > 100 µM

**Q.** And the TGI (MALME-3M melanoma)?
**A.** > 100 µM

**Q.** What about the GI50 (UACC-62 melanoma) of the same molecule?
**A.** 0.355 µM

**Q.** What about the TGI (UACC-62 melanoma) of the same molecule?
**A.** > 100 µM

**Q.** What about the GI50 (HCT-116 colon) of the same molecule?
**A.** 0.477 µM

**Q.** And the TGI (HCT-116 colon)?
**A.** > 100 µM

**Q.** What about the GI50 (RXF 393 renal) of the same molecule?
**A.** 5.48 µM

**Q.** What about the TGI (RXF 393 renal) of the same molecule?
**A.** > 100 µM

**Q.** And the GI50 (786-0 renal)?
**A.** 14.3 µM

**Q.** What about the TGI (786-0 renal) of the same molecule?
**A.** > 100 µM

**Q.** And the GI50 (SF-295 CNS)?
**A.** 0.306 µM

**Q.** And the TGI (SF-295 CNS)?
**A.** > 100 µM

**Q.** And the GI50 (OVCAR-5 ovarian)?
**A.** > 100 µM

**Q.** What about the TGI (OVCAR-5 ovarian) of the same molecule?
**A.** > 100 µM

**Q.** And the GI50 (CCRF-CEM leukemia)?
**A.** > 100 µM

**Q.** What about the TGI (CCRF-CEM leukemia) of the same molecule?
**A.** > 100 µM

**Q.** And the GI50 (HOP-62 NSCLC)?
**A.** 3.34 µM

**Q.** What about the TGI (HOP-62 NSCLC) of the same molecule?
**A.** > 100 µM

**Q.** What about the GI50 (HCT-15 colon) of the same molecule?
**A.** 0.766 µM

**Q.** And the TGI (HCT-15 colon)?
**A.** > 100 µM

**Q.** What about the GI50 (SF-539 CNS) of the same molecule?
**A.** 1.32 µM

**Q.** What about the TGI (SF-539 CNS) of the same molecule?
**A.** > 100 µM

**Q.** What about the GI50 (OVCAR-4 ovarian) of the same molecule?
**A.** > 100 µM

**Q.** And the TGI (OVCAR-4 ovarian)?
**A.** > 100 µM

**Q.** And the GI50 (LOX IMVI melanoma)?
**A.** > 100 µM

**Q.** What about the TGI (LOX IMVI melanoma) of the same molecule?
**A.** > 100 µM

**Q.** What about the GI50 (COLO 205 colon) of the same molecule?
**A.** 0.288 µM

**Q.** What about the TGI (COLO 205 colon) of the same molecule?
**A.** 1.02 µM

**Q.** And the GI50 (DU-145 prostate)?
**A.** 0.752 µM

**Q.** What about the TGI (DU-145 prostate) of the same molecule?
**A.** > 100 µM

**Q.** And the GI50 (UACC-257 melanoma)?
**A.** > 100 µM

**Q.** What about the TGI (UACC-257 melanoma) of the same molecule?
**A.** > 100 µM

**Q.** And the GI50 (NCI-H522 lung)?
**A.** > 100 µM

**Q.** And the TGI (NCI-H522 lung)?
**A.** > 100 µM

**Q.** What about the GI50 (HT29 colon) of the same molecule?
**A.** 0.404 µM

**Q.** What about the TGI (HT29 colon) of the same molecule?
**A.** > 100 µM

**Q.** What about the GI50 (PC-3 prostate) of the same molecule?
**A.** 0.342 µM

**Q.** What about the TGI (PC-3 prostate) of the same molecule?
**A.** > 100 µM

**Q.** And the GI50 (U251 CNS)?
**A.** 0.607 µM

**Q.** And the TGI (U251 CNS)?
**A.** > 100 µM

**Q.** And the GI50 (SN12C renal)?
**A.** 15.9 µM

**Q.** And the TGI (SN12C renal)?
**A.** > 100 µM

**Q.** What about the GI50 (SK-MEL-5 melanoma) of the same molecule?
**A.** 0.321 µM

**Q.** And the TGI (SK-MEL-5 melanoma)?
**A.** > 100 µM

**Q.** What about the GI50 (HS 578T breast) of the same molecule?
**A.** 0.924 µM

**Q.** And the TGI (HS 578T breast)?
**A.** > 100 µM

**Q.** And the GI50 (NCI-H460 lung)?
**A.** 0.463 µM

**Q.** And the TGI (NCI-H460 lung)?
**A.** > 100 µM

**Q.** What about the GI50 (M14 melanoma) of the same molecule?
**A.** 0.376 µM

**Q.** And the TGI (M14 melanoma)?
**A.** > 100 µM

**Q.** And the GI50 (IGROV1 ovarian)?
**A.** > 24 µM

**Q.** And the TGI (IGROV1 ovarian)?
**A.** > 100 µM

**Q.** And the GI50 (K-562 leukemia)?
**A.** 0.343 µM

**Q.** What about the TGI (K-562 leukemia) of the same molecule?
**A.** > 100 µM

**Q.** What about the GI50 (HOP-92 NSCLC) of the same molecule?
**A.** > 47.9 µM

**Q.** And the TGI (HOP-92 NSCLC)?
**A.** > 100 µM

**Q.** What about the GI50 (SK-MEL-28 melanoma) of the same molecule?
**A.** 1.66 µM

**Q.** What about the TGI (SK-MEL-28 melanoma) of the same molecule?
**A.** > 100 µM

**Q.** And the GI50 (KM12 colon)?
**A.** 0.52 µM

**Q.** What about the TGI (KM12 colon) of the same molecule?
**A.** > 100 µM

**Q.** What about the GI50 (UO-31 renal) of the same molecule?
**A.** > 100 µM

**Q.** And the TGI (UO-31 renal)?
**A.** > 100 µM

**Q.** What about the GI50 (OVCAR-3 ovarian) of the same molecule?
**A.** 0.364 µM

**Q.** What about the TGI (OVCAR-3 ovarian) of the same molecule?
**A.** 1.9 µM

**Q.** And the GI50 (BT-549 breast)?
**A.** > 100 µM

**Q.** And the TGI (BT-549 breast)?
**A.** > 100 µM

**Q.** And the GI50 (A498 renal)?
**A.** 0.075 µM

**Q.** And the TGI (A498 renal)?
**A.** 3.97 µM

**Q.** And the GI50 (SR leukemia)?
**A.** 0.0188 µM

**Q.** And the TGI (SR leukemia)?
**A.** 0.116 µM

**Q.** And the GI50 (RPMI-8226 leukemia)?
**A.** 2.5 µM

**Q.** And the TGI (RPMI-8226 leukemia)?
**A.** > 100 µM
